The target in the experiment is Mouse ERK2 protein (Mus musculus (Mouse), UniProt P63085). Kind of experiment: Coupled MEK1/ERK2 IMAP assay or Active ERK2 IMAP assay. The experiment is classed as biochemical. Conditions: Table 1, class symbols, 30 μM ATP.

One may read the IC50 as the midpoint of a concentration-inhibition curve. Read a low IC50 as inhibition by little substance.

Mouse ERK2 protein, sequence (P63085 whole entry): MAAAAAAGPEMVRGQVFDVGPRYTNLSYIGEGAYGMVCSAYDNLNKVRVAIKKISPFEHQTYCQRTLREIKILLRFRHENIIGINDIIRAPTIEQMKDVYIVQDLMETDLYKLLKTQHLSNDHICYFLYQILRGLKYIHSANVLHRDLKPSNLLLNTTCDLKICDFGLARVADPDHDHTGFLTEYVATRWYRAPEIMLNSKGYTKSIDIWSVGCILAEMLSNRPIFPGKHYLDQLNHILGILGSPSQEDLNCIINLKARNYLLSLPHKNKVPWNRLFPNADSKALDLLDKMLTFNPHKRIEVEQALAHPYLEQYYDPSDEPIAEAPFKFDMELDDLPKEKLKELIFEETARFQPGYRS

Consider `Cc1cc(-c2n[nH]c3c2CN(C(=O)NC2CC(C)CN(Cc4c(F)cccc4F)C2)CC3)ccn1` (centres unmarked) [Compound 89, N-[1-[(2,6-difluorophenyl)-methyl]-5-methyl-3-piperidinyl]-1,4,6,7-tetrahydro-3-(2-methyl-4-pyridinyl)-5H-pyrazolo[4,3-c]pyridine-5-carboxamide], for which the IC50 is 0.021 to 0.1 µM.

The compound `COc1cccc(F)c1CN1CC(C)CC(NC(=O)N2CCc3[nH]nc(-c4ccnc(C)c4)c3C2)C1` (centres unmarked) [Compound 90, N-[1-[(2-fluoro-6-methoxyphenyl)methyl]-5-methyl-3-piperidinyl]-1,4,6,7-tetrahydro-3-(2-methyl-4-pyridinyl)-5H-pyrazolo[4,3-c]pyridine-5-carboxamide] returned an IC50 of 0.021 to 0.1 µM.

The compound `Cc1cc(-c2n[nH]c3c2CN(C(=O)NC2CC(C)CN(Cc4c(F)cccc4Cl)C2)CC3)ccn1` (centres unmarked) [Compound 91, N-[1-[(2-chloro-6-fluorophenyl)methyl]-5-methyl-3-piperidinyl)-1,4,6,7-tetrahydro-3-(2-methyl-4-pyridinyl)-5H-pyrazolo[4,3-c]pyridine-5-carboxamide] displayed an IC50 of less than 0.02 µM.

Compound `CCC1(NC(=O)N2CCc3[nH]nc(-c4ccnc(C)c4)c3C2)CCCN(Cc2c(F)cccc2F)C1` (centres unmarked) [Compound 92, N-[1-[(2,6-difluorophenyl)-methyl]-3-ethyl-3-piperidinyl]-1,4,6,7-tetrahydro-3-(2-methyl-4-pyridinyl)-5H-pyrazolo[4,3-c]pyridine-5-carboxamide] yielded an IC50 of 0.101 to 1 µM.

With `CCC1(NC(=O)N2CCc3[nH]nc(-c4ccnc(C)c4)c3C2)CCCN(Cc2csc3ccccc23)C1` (centres unmarked) [Compound 93, N-[1-(benzo[b]thien-3-ylmethyl)-3-ethyl-3-piperidinyl]-1,4,6,7-tetrahydro-3-(2-methyl-4-pyridinyl)-5H-pyrazolo[4,3-c]pyridine-5-carboxamide], the IC50 was in the range of 0.101 to 1 µM.

`Cc1cc(-c2n[nH]c3c2CN(C(=O)NC2CC(C)CN(Cc4c(C)cccc4C)C2)CC3)ccn1` (centres unmarked) [Compound 94, N-[1-[(2,6-dimethylphenyl)-methyl]-5-methyl-3-piperidinyl]-1,4,6,7-tetrahydro-3-(2-methyl-4-pyridinyl)-5H-pyrazolo[4,3-c]pyridine-5-carboxamide] registered an IC50 of 0.021 to 0.1 µM.

The compound `Cc1cc(-c2n[nH]c3c2CN(C(=O)NC2CC(C)CN(Cc4c(F)cccc4C(F)(F)F)C2)CC3)ccn1` (centres unmarked) [Compound 95, N-[1-[[2-fluoro-6-(trifluoro-methyl)phenyl]methyl]-5-methyl-3-piperidinyl]-1,4,6,7-tetrahydro-3-(2-methyl-4-pyridinyl)-5H-pyrazolo[4,3-c]pyridine-5-carboxamide] registered an IC50 of 0.101 to 1 µM.

As to `Cc1cc(-c2n[nH]c3c2CN(C(=O)NC2CC(C)CN(Cc4cnc5ccccc5c4)C2)CC3)ccn1` (centres unmarked) [Compound 96, 1,4,6,7-tetrahydro-3-(2-methyl-4-pyridinyl)-N-[5-methyl-1-(3-quinolinylmethyl)-3-piperidinyl]-5H-pyrazolo[4,3-c]pyridine-5-carboxamide], the IC50 was 0.101 to 1 µM.

On to `COc1ccc2ccccc2c1CN1CCC[C@@H](NC(=O)N2CCc3[nH]nc(-c4ccnc(C)c4)c3C2)C1` [Compound 97, 1,4,6,7-tetrahydro-N-[1-[(2-Methoxy-1-naphthalenyl)-methyl]-3(R)-piperidinyl]-3-(2-methyl-4-pyridinyl)-5H-pyrazolo[4,3-c]pyridine-5-carboxamide], for which the IC50 is 0.021 to 0.1 µM.

In the case of `Cc1cc(-c2n[nH]c3c2CN(C(=O)N[C@@H]2CCCN(Cc4ccnc5ccccc45)C2)CC3)ccn1` [Compound 98], the IC50 lay in the range of 0.101 to 1 µM.

For `COc1ccc(CN2CCC[C@@H](NC(=O)N3CCc4[nH]nc(-c5ccnc(C)c5)c4C3)C2)c2ccccc12` [Compound 99, 1,4,6,7-tetrahydro-N-[1-[(4-Methoxy-1-naphthalenyl)-methyl]-3(R)-piperidinyl]-3-(2-methyl-4-pyridinyl)-5H-pyrazolo[4,3-c]pyridine-5-carboxamide], the IC50 was 0.021 to 0.1 µM.

`Cc1cc(-c2n[nH]c3c2CN(C(=O)NC2CC(C)CN(Cc4csc5ccccc45)C2)CC3)ccn1` (centres unmarked) [Compound 101, N-[1-(benzo[b]thien-3-ylmethyl)-5-methyl-3-piperidinyl]-1,4,6,7-tetrahydro-3-(2-methyl-4-pyridinyl)-5H-pyrazolo[4,3-c]pyridine-5-carboxamide] registered an IC50 of 0.021 to 0.1 µM.

As for `Cc1cc(-c2n[nH]c3c2CN(C(=O)NC2CC(C)CN(Cc4cc5ccccc5n4C)C2)CC3)ccn1` (centres unmarked) [Compound 102, 1,4,6,7-tetrahydro-N-[5-methyl-1-[(1-methyl-1H-indol-2-yl)methyl]-3-piperidinyl]-3-(2-methyl-4-pyridinyl)-5H-pyrazolo[4,3-c]pyridine-5-carboxamide], the IC50 was 0.021 to 0.1 µM.

On to `Cc1cc(-c2n[nH]c3c2CN(C(=O)NC2CC(C)CN(Cc4ccccc4Cl)C2)CC3)ccn1` (centres unmarked) [Compound 103, N-[1-[(2-chlorophenyl)methyl]-5-methyl-3-piperidinyl]-1,4,6,7-tetrahydro-3-(2-methyl-4-pyridinyl)-5H-pyrazolo[4,3-c]pyridine-5-carboxamide], for which the IC50 was 0.021 to 0.1 µM.

In turn, `Cc1cc(-c2n[nH]c3c2CN(C(=O)NC2CC(C)CN(Cc4ccc5ccccc5n4)C2)CC3)ccn1` (stereo not drawn) [Compound 104, 1,4,6,7-tetrahydro-3-(2-methyl-4-pyridinyl)-N-[5-methyl-l-(2-quinolinylmethyl)-3-piperidinyl]-5H-pyrazolo[4,3-c]pyridine-5-carboxamide] displayed an IC50 of 0.021 to 0.1 µM.

`Cc1cc(-c2n[nH]c3c2CN(C(=O)NC2CCC(c4ccccc4)NC2)CC3)ccn1` (centres unmarked) [Compound 105, 1,4,6,7-tetrahydro-3-(2-methyl-4-pyridinyl)-N-(6-phenyl-3-piperidinyl)-5H-pyrazolo[4,3-c]pyridine-5-carboxamide]: the IC50 fell in the range of 0.101 to 1 µM.

In the case of `Cc1cc(-c2n[nH]c3c2CN(C(=O)NC2CCC(c4ccccc4)N(Cc4c(F)cccc4F)C2)CC3)ccn1` (centres unmarked) [Compound 106, N-[1-[(2,6-difluorophenyl)-methyl]-6-phenyl-3-piperidinyl]-1,4,6,7-tetrahydro-3-(2-methyl-4-pyridinyl)-5H-pyrazolo[4,3-c]pyridine-5-carboxamide], the IC50 lay within 0.101 to 1 µM.

`O=C(NC1CC2CC1N(Cc1c(F)cccc1F)C2)N1CCc2[nH]nc(-c3ccncc3)c2C1` (centres unmarked) [Compound 107, N-[2-[(2,6-difluorophenyl)-methyl]-2-azabicyclo[2.2.1]-hept-6-yl]-1,4,6,7-tetrahydro-3-(4-pyridinyl)-5H-pyrazolo[4,3-c]pyridine-5-carboxamide] had an IC50 of 0.101 to 1 µM.

As to `COc1cccc(F)c1CN1CC2CC(NC(=O)N3CCc4[nH]nc(-c5ccncc5)c4C3)C1C2` (centres unmarked) [Compound 108, N-[2-[(2-fluoro-6-methoxyphenyl)methyl]-2-azabicyclo[2.2.1]hept-6-yl]-1,4,6,7-tetrahydro-3-(4-pyridinyl)-5H-pyrazolo[4,3-c]pyridine-5-carboxamide], the IC50 lay within 0.101 to 1 µM.

Compound `O=C(N[C@@H]1CCCN(Cc2c(F)cccc2F)C1)N1CCc2[nH]nc(-c3ccc4nccn4c3)c2C1` [Compound 111, N-[1-[(2,6-difluorophenyl)-methyl]-3(R)-piperidinyl]-1,4,6,7-tetrahydro-3-(imidazo[1,2-a]pyridin-6-yl)-5H-pyrazolo[4,3-c]pyridine-5-carboxamide] displayed an IC50 of less than 0.02 µM.
